SMILES strings stand for the structures.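 1) Cells in 96-well plates. 2) Compound, 48 h, 5 concentrations. 3) Linear interpolation between surrounding doses. 4) Unreached endpoint = highest concentration. Abbreviation: GI50, concentration required for 50% inhibition of growth.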 The source made the active and inactive calls. No stated cut-off is given here; in the data, active = GI50 up to about 1.1 µM and inactive = higher.

Among the test systems are OVCAR-8; UO-31; UACC-62; SK-MEL-28; HCT-116; RPMI-8226; SF-539; CCRF-CEM; MDA-MB-435; HL-60; Malme-3M; NCI-H23; IGROV-1; HOP-92; SNB-75; BT-549; OVCAR-5.
What all share (test): NCI tumour cell line growth inhibition, 48 h

For the compound `CC(=O)OCCN1c2ccccc2Sc2cnccc21`, the GI50 in the experiment with OVCAR-8, with UO-31, with UACC-62, in the experiment with SK-MEL-28, in the experiment on HCT-116 and with RPMI-8226 was > 10 µM (inactive) in each case. Further, the GI50 in the experiment with SF-539, with CCRF-CEM, in the experiment on MDA-MB-435, with HL-60, with Malme-3M and in the experiment with NCI-H23 was > 10 µM (inactive) throughout. The GI50 in the experiment on IGROV-1 was > 10 µM (inactive); in the experiment with HOP-92, > 10 µM (inactive); in the experiment with SNB-75, 9.38 µM (inactive); with BT-549, > 10 µM (inactive); in the experiment on OVCAR-5, > 10 µM (inactive).

With `CC1=NN(c2nc(N)nc(CBr)n2)C(C)(C)C1`, the GI50 in the experiment with OVCAR-8 was 5.45 µM (inactive); with UO-31 it was 0.384 µM (active); in the experiment on UACC-62, 7.28 µM (inactive); in the experiment on SK-MEL-28, 13.7 µM (inactive); in the experiment on HCT-116 it was 6.27 µM (inactive); in the experiment on RPMI-8226, 1.13 µM (inactive). Moreover, the GI50 was 2.3 µM (inactive) in the experiment on SF-539; 0.229 µM (active) in the experiment with CCRF-CEM; 11 µM (inactive) with MDA-MB-435; 0.975 µM (active) in the experiment on HL-60; 2.45 µM (inactive) in the experiment with Malme-3M; 9.86 µM (inactive) in the experiment with NCI-H23. In addition, the GI50 is 1.49 µM (inactive) in the experiment with IGROV-1; 0.436 µM (active) with HOP-92; 9.75 µM (inactive) in the experiment with SNB-75; 11.8 µM (inactive) with BT-549; 3.71 µM (inactive) with OVCAR-5.

For `COc1ccc2c(c1)-c1nc(=S)n(CCCN(C)C)c3ccc([N+](=O)[O-])c(c13)N2`, the GI50 in the experiment with OVCAR-8 was 0.456 µM (active); with UO-31, 0.49 µM (active); in the experiment on UACC-62, 12.1 µM (inactive); with SK-MEL-28, 1.13 µM (inactive); with HCT-116 it was 0.224 µM (active); in the experiment with RPMI-8226, 0.693 µM (active). For the same compound, the GI50 was 0.589 µM (active) in the experiment with SF-539; 0.205 µM (active) with CCRF-CEM; 1.97 µM (inactive) with MDA-MB-435; 0.0269 µM (active) with HL-60; 0.518 µM (active) with Malme-3M; 1.08 µM (active) in the experiment with NCI-H23. The GI50 in the experiment on IGROV-1 was 0.345 µM (active); with HOP-92, 2.15 µM (inactive); in the experiment on SNB-75, 6.32 µM (inactive); in the experiment with BT-549 it was 7.21 µM (inactive); in the experiment with OVCAR-5 it was 0.611 µM (active).

Consider `CC(C)(CN)SCc1ccccc1`, for which the GI50 with OVCAR-8, with UO-31, in the experiment with UACC-62, with SK-MEL-28, with HCT-116 and with RPMI-8226 was > 100 µM (inactive) in each case. The GI50 with SF-539, in the experiment with CCRF-CEM, with MDA-MB-435, with HL-60, in the experiment on Malme-3M and with IGROV-1 was > 100 µM (inactive) each time. In addition, the GI50 with HOP-92, in the experiment on SNB-75, with BT-549 and in the experiment on OVCAR-5 was > 100 µM (inactive) throughout.

Turning to `CCOC(=O)c1c(N2CCOCC2)ncn(-c2cccc(Cl)c2)c1=O`, the GI50 with OVCAR-8, with UACC-62, in the experiment on SK-MEL-28, in the experiment on HCT-116, in the experiment on RPMI-8226 and with SF-539 was > 100 µM (inactive) each time. The GI50 in the experiment on CCRF-CEM, with MDA-MB-435, in the experiment with HL-60, in the experiment on Malme-3M, in the experiment with NCI-H23 and in the experiment with IGROV-1 was > 100 µM (inactive) in each case. The GI50 in the experiment with HOP-92, with SNB-75, in the experiment on BT-549 and in the experiment with OVCAR-5 was > 100 µM (inactive) each time.

Consider `Cc1cn(S(=O)(=O)c2ccccc2)c2c(OCc3ccccc3)cc(NS(C)(=O)=O)cc12`, for which the GI50 in the experiment on OVCAR-8 is 32 µM (inactive); in the experiment with UO-31 it was 17.7 µM (inactive); in the experiment on UACC-62 it was 17.9 µM (inactive); in the experiment with SK-MEL-28 it was 52.8 µM (inactive); in the experiment with HCT-116 it was 9.12 µM (inactive); with RPMI-8226, 13.2 µM (inactive). Besides, the GI50 in the experiment with SF-539 was 38.8 µM (inactive); in the experiment on MDA-MB-435 it was 9.64 µM (inactive); with HL-60, 4.52 µM (inactive); with Malme-3M, 8.38 µM (inactive); in the experiment on NCI-H23, 16 µM (inactive); in the experiment on IGROV-1, 33 µM (inactive). The GI50 in the experiment on HOP-92 is 27.2 µM (inactive); in the experiment with SNB-75 it was 22.9 µM (inactive); in the experiment with BT-549, 27.6 µM (inactive); in the experiment with OVCAR-5, 61.8 µM (inactive).

`CCN(CC)CCCNc1nncc2cc3c([nH]c4ccc(OC)cc43)c(C)c12`: the GI50 in the experiment with OVCAR-8 was 3.98 µM (inactive); in the experiment on UO-31, 11.5 µM (inactive); in the experiment with UACC-62 it was 17.4 µM (inactive); with SK-MEL-28, 15.7 µM (inactive); in the experiment with HCT-116 it was 3.38 µM (inactive); with RPMI-8226, 6.84 µM (inactive). The GI50 is 3.44 µM (inactive) in the experiment with SF-539; 2.93 µM (inactive) with CCRF-CEM; 10.8 µM (inactive) with MDA-MB-435; < 0.01 µM (active) with HL-60; 13.7 µM (inactive) in the experiment with Malme-3M; 10.7 µM (inactive) with NCI-H23. In addition, the GI50 is 4.14 µM (inactive) in the experiment with IGROV-1; 10.1 µM (inactive) in the experiment on HOP-92; 9.59 µM (inactive) in the experiment on SNB-75; 16.3 µM (inactive) in the experiment on BT-549; 11.5 µM (inactive) in the experiment on OVCAR-5.

For the compound `NC(=S)NS(=O)(=O)c1ccc(F)cc1F`, the GI50 with OVCAR-8, in the experiment on UACC-62, in the experiment with SK-MEL-28, in the experiment with HCT-116, in the experiment on RPMI-8226 and in the experiment on SF-539 was > 100 µM (inactive) each time. In addition, the GI50 with CCRF-CEM, in the experiment with MDA-MB-435, in the experiment with HL-60, in the experiment with Malme-3M, in the experiment on NCI-H23 and with IGROV-1 was > 100 µM (inactive) throughout. The GI50 in the experiment on HOP-92, in the experiment on SNB-75, with BT-549 and with OVCAR-5 was > 100 µM (inactive) each time.

As for `Cc1n[nH]c(=O)n1C1CCCC1`, the GI50 in the experiment with OVCAR-8, in the experiment with UO-31, in the experiment on SK-MEL-28, in the experiment on HCT-116, with RPMI-8226 and with SF-539 was > 100 µM (inactive) each time. For the same compound, the GI50 in the experiment on CCRF-CEM, in the experiment with MDA-MB-435, with HL-60, with Malme-3M, in the experiment with NCI-H23 and in the experiment on IGROV-1 was > 100 µM (inactive) throughout. Also, the GI50 with HOP-92, in the experiment on SNB-75, in the experiment on BT-549 and in the experiment with OVCAR-5 was > 100 µM (inactive) in each case.

The values above are taken from ChEMBL document CHEMBL1201862, “PubChem BioAssay data set” (2004).
